Some test systems named below: Escherichia coli; Bacillus cereus; Staphylococcus aureus; Pseudomonas aeruginosa; Escherichia coli UB1005.
What all share (test): ≥ marks a high value that may be exact or a test limit, other limits are often not marked, values filed in µg/mL are converted to µM
For experiment [1], the system named is Escherichia coli ATCC 25922.
Experiment [2] relates to Staphylococcus epidermidis ATCC 12228.
Experiment [3] deals with Pseudomonas aeruginosa PAO1.
For experiment [4], the system named is Staphylococcus aureus ATCC 25923.

SMILES strings stand for the structures. ≈ marks a conversion by molar mass, not a printed value.

One may read the MIC as the least concentration at which growth counts as inhibited. On to `CC(C)[C@H](NC(=O)CNC(=O)CNC(=O)[C@@H](NC(=O)[C@@H](N)Cc1ccccc1)C(C)C)C(=O)N[C@@H](C)C(=O)N[C@@H](CO)C(=O)N[C@@H](CCCCN)C(=O)N[C@H](C(=O)N[C@H](C(=O)N1CCC[C@H]1C(=O)N[C@@H](CO)C(=O)N[C@H](C(=O)N[C@@H](Cc1ccc(O)cc1)C(=O)N[C@@H](CS)C(=O)N[C@@H](CCCCN)C(=O)N[C@H](C(=O)N[C@@H](CO)C(=O)N[C@@H](CCCCN)C(=O)N[C@@H](CCCCN)C(=O)O)C(C)C)C(C)C)C(C)C)C(C)C` [FVGGVASKVVPSVYCKVSKK], for which the MIC in the experiment on Escherichia coli is over 123 µM; with Bacillus cereus, at least 123 µM. For `CC[C@H](C)[C@H](NC(=O)CN)C(=O)NCC(=O)N[C@@H](Cc1cnc[nH]1)C(=O)N[C@@H](Cc1ccccc1)C(=O)N[C@@H](CC(C)C)C(=O)N[C@@H](Cc1cnc[nH]1)C(=O)N[C@@H](CCCCN)C(=O)N[C@H](C(=O)N[C@@H](CCCCN)C(=O)N[C@@H](CO)C(=O)N[C@@H](Cc1ccccc1)C(=O)NCC(=O)N[C@@H](CCCCN)C(=O)N[C@@H](CO)C(=O)N[C@@H](Cc1c[nH]c2ccccc12)C(=O)N[C@H](C(=O)NCC(=O)N[C@@H](CCC(=O)O)C(=O)N[C@H](C(=O)N[C@@H](CCSC)C(=O)N[C@@H](CC(N)=O)C(=O)N[C@@H](CO)C(N)=O)[C@@H](C)CC)[C@@H](C)CC)C(C)C` [GIGHFLHKVKSFGKSWIGEIMNS], the minimal inhibitory concentration (MIC) against Escherichia coli is 19 µM (≈ 48.9 µg/mL); with Staphylococcus aureus, 76 µM (≈ 195 µg/mL); in the experiment on Pseudomonas aeruginosa, 19 µM (≈ 48.9 µg/mL). For `CC[C@H](C)[C@H](NC(=O)CN)C(=O)N[C@@H](CCCCN)C(=O)N[C@@H](CCCCN)C(=O)N[C@@H](Cc1c[nH]c2ccccc12)C(=O)N[C@@H](CC(C)C)C(=O)N[C@@H](Cc1cnc[nH]1)C(=O)N[C@@H](CO)C(=O)N[C@@H](C)C(=O)N[C@@H](CCCCN)C(=O)N[C@@H](CCCCN)C(=O)N1CCC[C@H]1C(=O)NCC(=O)N[C@@H](CCCCN)C(=O)N[C@@H](CCCCN)C(=O)N[C@@H](Cc1ccccc1)C(=O)N[C@H](C(=O)N[C@@H](CCCCN)C(=O)N[C@@H](CCCCN)C(=O)N[C@H](C(=O)N[C@@H](CCSC)C(=O)N[C@@H](CC(N)=O)C(=O)N[C@@H](CO)C(N)=O)[C@@H](C)CC)C(C)C` [GIKKWLHSAKKPGKKFVKKIMNS], the MIC in experiment [1] and in [2] was 5 µM (≈ 13.3 µg/mL) in each case. Take `CC[C@H](C)[C@H](NC(=O)[C@@H](NC(=O)[C@H](CCCCN)NC(=O)[C@H](C)NC(=O)[C@H](CC(C)C)NC(=O)[C@H](CCCCN)NC(=O)[C@H](CCCCN)NC(=O)CN)[C@@H](C)O)C(=O)N[C@@H](C)C(=O)N[C@@H](CCCCN)C(=O)N[C@@H](CCC(=O)O)C(=O)N[C@H](C(=O)N[C@@H](C)C(=O)N[C@@H](CCCCN)C(=O)N[C@@H](CCC(N)=O)C(=O)NCC(=O)N[C@@H](C)C(=O)N[C@@H](CCCCN)C(=O)N[C@@H](Cc1ccccc1)C(=O)N[C@@H](C)C(=O)O)C(C)C` [GKKLAKTIAKEVAKQGAKFA]: the MIC against Escherichia coli was 30.7 µM (≈ 64 µg/mL); against Bacillus cereus, at least 123 µM. On to `CC[C@H](C)[C@H](NC(=O)[C@H](Cc1ccccc1)NC(=O)[C@H](CO)NC(=O)[C@H](CCCCN)NC(=O)[C@H](Cc1ccccc1)NC(=O)[C@@H](N)CCCCN)C(=O)N[C@@H](CCCCN)C(=O)N[C@@H](CCCCN)C(=O)N[C@@H](CC(C)C)C(=O)N[C@H](C(=O)N[C@@H](CO)C(=O)N[C@@H](CCCCN)C(=O)N[C@@H](Cc1ccccc1)C(=O)N[C@@H](CC(C)C)C(=O)N[C@@H](Cc1cnc[nH]1)C(=O)N[C@@H](CO)C(=O)N[C@@H](C)C(=O)N[C@@H](CCCCN)C(=O)N[C@@H](CCCCN)C(=O)N[C@@H](Cc1ccccc1)C(N)=O)[C@@H](C)O` [KFKSFIKKLTSKFLHSAKKF], for which, in the experiment on Pseudomonas aeruginosa, the MIC is 5.18 µM (≈ 12.5 µg/mL). `CC[C@H](C)[C@H](NC(=O)[C@H](C)NC(=O)[C@H](CC(C)C)NC(=O)[C@H](CCCCN)NC(=O)[C@H](CC(C)C)NC(=O)[C@@H](NC(=O)[C@@H](NC(=O)[C@@H](N)CCCCN)[C@@H](C)CC)[C@@H](C)O)C(=O)N[C@@H](CCCCN)C(=O)N[C@@H](C)C(=O)N[C@@H](Cc1c[nH]c2ccccc12)C(=O)N[C@@H](CCCCN)C(=O)N[C@@H](CC(C)C)C(=O)N[C@@H](C)C(=O)N[C@@H](CC(C)C)C(=O)N[C@@H](CCCCN)C(=O)N[C@@H](C)C(=O)N[C@@H](C)C(N)=O` [KITLKLAIKAWKLALKAA]: the figures for the MIC in the experiment on Escherichia coli, against Staphylococcus aureus and against Pseudomonas aeruginosa were 5.3 µM (≈ 10.5 µg/mL), 5.3 µM (≈ 10.5 µg/mL) and 21.2 µM (≈ 42 µg/mL), respectively. The molecule `CC[C@H](C)[C@H](NC(=O)[C@H](Cc1ccccc1)NC(=O)[C@H](CO)NC(=O)[C@H](CCCCN)NC(=O)[C@H](Cc1c[nH]c2ccccc12)NC(=O)[C@@H](N)CCCCN)C(=O)N[C@@H](CCCCN)C(=O)N[C@@H](CCCCN)C(=O)N[C@@H](CC(C)C)C(=O)N[C@H](C(=O)N[C@@H](CC(=O)O)C(=O)N[C@@H](CCCCN)C(=O)N[C@@H](Cc1ccccc1)C(=O)N[C@@H](CC(C)C)C(=O)N[C@@H](Cc1cnc[nH]1)C(=O)N[C@@H](CO)C(=O)N[C@@H](C)C(=O)N[C@@H](CCCCN)C(=O)N[C@@H](CCCCN)C(=O)N[C@@H](Cc1ccccc1)C(N)=O)[C@@H](C)O` [KWKSFIKKLTDKFLHSAKKF] displayed an MIC in the experiment on Pseudomonas aeruginosa of 10.1 µM (≈ 25 µg/mL).

On to `CC[C@H](C)[C@H](NC(=O)[C@H](Cc1ccccc1)NC(=O)[C@H](CO)NC(=O)[C@H](CCCCN)NC(=O)[C@H](Cc1c[nH]c2ccccc12)NC(=O)[C@@H](N)CCCCN)C(=O)N[C@@H](CCCCN)C(=O)N[C@@H](CCCCN)C(=O)N[C@@H](CC(C)C)C(=O)N[C@H](C(=O)N[C@@H](CO)C(=O)N[C@@H](CCCCN)C(=O)N[C@@H](C)C(=O)N[C@@H](CC(C)C)C(=O)N[C@@H](Cc1cnc[nH]1)C(=O)N[C@@H](CO)C(=O)N[C@@H](C)C(=O)N[C@@H](CCCCN)C(=O)N[C@@H](CCCCN)C(=O)N[C@@H](Cc1ccccc1)C(N)=O)[C@@H](C)O` [KWKSFIKKLTSKALHSAKKF], for which the MIC in the experiment with Pseudomonas aeruginosa turned out to be 2.63 µM (≈ 6.25 µg/mL). For the molecule `CC[C@H](C)[C@H](NC(=O)[C@H](Cc1ccccc1)NC(=O)[C@H](CO)NC(=O)[C@H](CCCCN)NC(=O)[C@H](Cc1c[nH]c2ccccc12)NC(=O)[C@@H](N)CCCCN)C(=O)N[C@@H](CCCCN)C(=O)N[C@@H](CCCCN)C(=O)N[C@@H](CC(C)C)C(=O)N[C@H](C(=O)N[C@@H](CO)C(=O)N[C@@H](CCCCN)C(=O)N[C@@H](Cc1ccccc1)C(=O)N[C@@H](CC(C)C)C(=O)N[C@@H](Cc1cnc[nH]1)C(=O)N[C@@H](CO)C(=O)N[C@@H](C)C(=O)N[C@@H](CC(N)=O)C(=O)N[C@@H](CCCCN)C(=O)N[C@@H](Cc1ccccc1)C(N)=O)[C@@H](C)O` [KWKSFIKKLTSKFLHSANKF], the MIC against Pseudomonas aeruginosa was 2.56 µM (≈ 6.25 µg/mL). As to `CC[C@H](C)[C@H](NC(=O)[C@@H](NC(=O)[C@H](C)NC(=O)[C@@H]1CCCN1C(=O)[C@@H](NC(=O)[C@@H](NC(=O)[C@H](CCCCN)NC(=O)[C@H](CO)NC(=O)[C@H](C)NC(=O)[C@H](CC(C)C)NC(=O)[C@H](CO)NC(=O)CNC(=O)[C@@H](NC(=O)[C@@H](NC(=O)CNC(=O)[C@@H](N)CC(C)C)C(C)C)C(C)C)C(C)C)C(C)C)C(C)C)C(=O)N[C@@H](CO)C(=O)N[C@@H](CCCCN)C(=O)N[C@H](C(=O)N[C@@H](CCCCN)C(=O)O)C(C)C` [LGVVGSLASKVVPAVISKVK], the MIC against Escherichia coli was over 131 µM; with Bacillus cereus it was at least 131 µM.

As to `CSCC[C@H](N)C(=O)N[C@H](C(=O)N[C@H](C(=O)N[C@@H](Cc1ccccc1)C(=O)N[C@@H](CO)C(=O)N[C@H](C(=O)N1CCC[C@H]1C(=O)N[C@@H](CCCCN)C(=O)N[C@@H](Cc1ccccc1)C(=O)N[C@@H](CCCCN)C(=O)N[C@@H](CO)C(=O)N[C@H](C(=O)N[C@H](C(=O)N[C@@H](C)C(=O)N[C@@H](CCCCN)C(=O)N[C@@H](CC(C)C)C(=O)N[C@@H](CC(C)C)C(=O)N[C@@H](CO)C(=O)N[C@@H](CO)C(=O)N[C@@H](C)C(=O)O)C(C)C)[C@@H](C)O)C(C)C)C(C)C)C(C)C` [MVVFSVPKFKSTVAKLLSSA], the MIC in the experiment on Escherichia coli was over 120 µM; in the experiment on Bacillus cereus it was at least 120 µM. With `CC[C@H](C)[C@H](NC(=O)[C@@H](NC(=O)[C@H](C)NC(=O)[C@@H]1CCCN1C(=O)[C@@H](NC(=O)[C@@H](NC(=O)[C@H](CCCCN)NC(=O)[C@H](CO)NC(=O)[C@H](C)NC(=O)[C@H](CC(C)C)NC(=O)[C@H](CCCN=C(N)N)NC(=O)CNC(=O)[C@H](CC(C)C)NC(=O)[C@H](C)NC(=O)[C@@H](N)CO)C(C)C)C(C)C)C(C)C)C(=O)NCC(=O)N[C@@H](CCCCN)C(=O)N[C@H](C(=O)N[C@H](C(=O)N[C@H](C(=O)O)[C@@H](C)O)[C@@H](C)O)C(C)C` [SALGRLASKVVPAVIGKVTT], the MIC was over 130 µM in the experiment with Escherichia coli and at least 130 µM against Bacillus cereus.

For `CC(C)C[C@H](NC(=O)[C@H](Cc1ccc(O)cc1)NC(=O)[C@@H]1CCCN1C(=O)[C@@H]1CCCN1C(=O)[C@H](CCCCN)NC(=O)[C@@H]1CCCN1C(=O)[C@@H](N)C(C)C)C(=O)N1CCC[C@H]1C(=O)N[C@@H](CCCN=C(N)N)C(=O)N1CCC[C@H]1C(=O)N[C@@H](CCCN=C(N)N)C(=O)N1CCC[C@H]1C(=O)N1CCC[C@H]1C(=O)N[C@@H](CCCN=C(N)N)C(=O)N[C@@H](CCCN=C(N)N)C(=O)N[C@@H](CCCCN)C(=O)N[C@@H](Cc1ccc(O)cc1)C(=O)N[C@@H](CC(N)=O)C(=O)N[C@@H](CCCN=C(N)N)C(N)=O` [VPKPPYLPRPRPPRRKYNR], the MIC stood at 0.544 µM (≈ 1.3 µg/mL) in the experiment on Escherichia coli UB1005, 13.4 µM (≈ 32 µg/mL) in experiment [3] and 1.68 µM (≈ 4 µg/mL) in experiment [4].

These data come from DBAASP.
